From ChEMBL document CHEMBL3132836, “Structure-based drug design of chromone antagonists of the adenosine A2A receptor” (Medchemcomm, 2014)

Columns and labels:
CHO = assay: Selectivity ratio of Ki for human adenosine A1 receptor expressed in CHO cells to Ki for human adenosine A2A receptor expressed in HEK293 cells; assay type: cell-based
[1] = Half life in Sprague-Dawley rat liver microsomes at 3 uM by LC-MS analysis; assay type: ADME
Adenosine receptor A2a = Adenosine receptor A2a (Homo sapiens, UniProt P29274); assay: Displacement of [3H]ZM241385 from human adenosine A2A receptor expressed in HEK293 cells after 1 hr by liquid scintillation counting; assay type: cell-based
Chain of Adenosine receptor A2a (P29274 whole entry): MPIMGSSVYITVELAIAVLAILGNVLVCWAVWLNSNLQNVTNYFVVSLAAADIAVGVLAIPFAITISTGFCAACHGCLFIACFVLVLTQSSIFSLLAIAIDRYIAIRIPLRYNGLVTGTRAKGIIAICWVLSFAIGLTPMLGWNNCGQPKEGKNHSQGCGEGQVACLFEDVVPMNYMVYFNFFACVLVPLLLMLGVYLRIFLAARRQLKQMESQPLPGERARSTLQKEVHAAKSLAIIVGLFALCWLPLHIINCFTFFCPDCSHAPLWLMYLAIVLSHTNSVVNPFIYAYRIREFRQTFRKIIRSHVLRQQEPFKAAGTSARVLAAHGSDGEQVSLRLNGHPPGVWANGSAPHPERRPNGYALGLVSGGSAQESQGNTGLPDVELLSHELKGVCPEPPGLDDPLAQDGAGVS

Adenosine receptor A3 = biological target: T1, Adenosine receptor A3 (Homo sapiens, UniProt P0DMS8); assay: Displacement of [125I]AB-MECA from adenosine A3 receptor (unknown origin) expressed in CHO-K1 cells after 60 mins; assay type: cell-based
T1 sequence (P0DMS8 whole entry): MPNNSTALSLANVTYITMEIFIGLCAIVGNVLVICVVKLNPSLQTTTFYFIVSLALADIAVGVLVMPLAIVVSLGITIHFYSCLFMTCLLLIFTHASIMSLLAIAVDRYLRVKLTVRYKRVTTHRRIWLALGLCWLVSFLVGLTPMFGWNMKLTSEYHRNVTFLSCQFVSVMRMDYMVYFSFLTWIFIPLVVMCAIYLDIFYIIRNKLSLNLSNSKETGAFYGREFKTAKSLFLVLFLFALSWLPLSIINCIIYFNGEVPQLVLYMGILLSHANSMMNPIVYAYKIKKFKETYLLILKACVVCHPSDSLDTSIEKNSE

Adenosine receptor A2b = biological target: T2, Adenosine receptor A2b (Homo sapiens, UniProt P29275); assay: Displacement of [3H]MRS1754 from adenosine A2B receptor (unknown origin) expressed in HEK293 cells after 90 mins; assay type: cell-based
T2 sequence (P29275 whole entry): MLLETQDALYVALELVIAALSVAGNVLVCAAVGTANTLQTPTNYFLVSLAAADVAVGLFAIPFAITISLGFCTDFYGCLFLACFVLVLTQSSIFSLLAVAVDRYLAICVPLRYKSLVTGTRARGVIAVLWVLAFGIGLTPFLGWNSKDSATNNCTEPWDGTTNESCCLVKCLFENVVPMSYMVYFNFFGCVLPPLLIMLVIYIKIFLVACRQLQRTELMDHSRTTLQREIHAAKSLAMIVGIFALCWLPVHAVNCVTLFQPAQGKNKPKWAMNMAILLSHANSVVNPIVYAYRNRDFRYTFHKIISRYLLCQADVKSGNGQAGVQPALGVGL

Adenosine receptor A1 = biological target: T3, Adenosine receptor A1 (Homo sapiens, UniProt P30542); assay: Displacement of [3H]DPCPX from human adenosine A1 receptor expressed in CHO cells after 1 hr by liquid scintillation counting; assay type: cell-based
T3 sequence (P30542 whole entry): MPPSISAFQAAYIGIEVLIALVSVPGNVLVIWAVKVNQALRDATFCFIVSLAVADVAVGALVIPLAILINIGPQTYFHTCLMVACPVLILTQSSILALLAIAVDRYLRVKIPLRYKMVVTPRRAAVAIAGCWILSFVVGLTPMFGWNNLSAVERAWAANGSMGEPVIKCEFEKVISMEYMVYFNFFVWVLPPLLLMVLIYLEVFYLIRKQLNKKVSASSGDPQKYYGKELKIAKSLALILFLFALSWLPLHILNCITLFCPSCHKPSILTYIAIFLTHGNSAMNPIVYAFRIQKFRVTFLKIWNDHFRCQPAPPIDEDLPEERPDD

Row | Ki (Adenosine receptor A2a; read-out: pKi (converted)) [nM] | Structure (SMILES) | also measured
1 | 79.4 | Cc1csc(-c2coc3cc(OCC4CC4)cc(C)c3c2=O)n1 | Ratio Ki (CHO): > 100; half-life at 3 µM [1]: 18 min
2 | 2000 | Cc1csc(-c2coc3cc(OCC(=O)O)cc(C)c3c2=O)n1 | –
3 | 25.1 | C#CCCCOc1cc(C)c2c(=O)c(-c3nc(C)cs3)coc2c1 | –
4 | 79.4 | CCc1cc2c(=O)c(-c3nc(C)cs3)coc2cc1O | Ratio Ki (CHO): > 100
5 | 1580 | Cc1csc(-c2coc3cc(OCCN(C)C)cc(C)c3c2=O)n1 | –
6 | 31.6 | CC(=O)Oc1cc(C)c2c(=O)c(-c3nc(C)cs3)coc2c1 | Ratio Ki (CHO): 13
7 | 316 | Cc1csc(-c2coc3cccc(C)c3c2=O)n1 | half-life at 3 µM [1]: 14 min
8 | 39.8 | CCOc1cc2occ(-c3nc(C)cs3)c(=O)c2cc1CC | half-life at 3 µM [1]: 16 min; IC50 (Adenosine receptor A3): > 10000 nM; Ki (Adenosine receptor A3): > 10000 nM; IC50 (Adenosine receptor A2b): > 10000 nM; Ki (Adenosine receptor A2b): > 10000 nM; Ki (Adenosine receptor A1): 5000 nM; Ki (Adenosine receptor A2a; read-out: Ki): 40 nM
9 | 100 | CCOC(=O)COc1cc(C)c2c(=O)c(-c3nc(C)cs3)coc2c1 | –

Second part, the compound before the results:

Row | Structure (SMILES) | Ki (Adenosine receptor A2a; read-out: pKi (converted)) [nM] | also measured
10 | Cc1csc(-c2coc3cc(O)ccc3c2=O)n1 | 2000 | –
11 | CCCc1cc2c(=O)c(-c3nc(C)cs3)coc2cc1O | 25.1 | –
12 | CCc1cc2c(=O)c(-c3csc(C)n3)coc2cc1O | 50.1 | –
13 | Cc1csc(-c2c(C)oc3cc(O)ccc3c2=O)n1 | 7940 | –
14 | CCc1cc2c(=O)c(-c3cscn3)coc2cc1O | 1580 | –
15 | CCCc1cc2c(=O)c(-c3csc(C)n3)coc2cc1O | 31.6 | –
16 | CCCCCc1cc2c(=O)c(-c3nc(C)cs3)coc2cc1O | 20 | Ratio Ki (CHO): > 100
